This note sets out measurements from PubChem BioAssay (NCI).

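Results reflect a 48-hour exposure of cells in 96-well plates to compound at five concentrations. GI50 is the concentration that inhibits growth by half. TGI is the concentration that stops growth completely.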

Assay in all cases: growth of human tumour cells (NCI), 48 h
Assay [1] concerns SNB-75 CNS.
Assay [2] deals with SW-620 colon.
For assay [3], the system named is HCT-15 colon.
For assay [4], the system named is RPMI-8226 leukemia.
Assay [5] relates to 786-0 renal.
In assay [6] the test system is NCI-H226 lung.
Assay [7] relates to OVCAR-4 ovarian.
Assay [8] relates to DU-145 prostate.
Assay [9] concerns K-562 leukemia.
The test system of assay [10] is SR leukemia.

`Cc1ccc2c(c1)C(=O)/C(=C/c1ncc([N+](=O)[O-])n1C)O2`: the GI50 in assay [1] was 3.14 µM; in assay [2], 0.271 µM; in assay [3] it was 0.369 µM; in [4], 1.6 µM; in [5], 2.16 µM; in [6], 4.62 µM. Besides, the GI50 in assay [7] was 2.15 µM; in [8] it was 2.65 µM; in assay [9] it was 0.598 µM; in assay [10], 0.0379 µM. Further, the TGI was 22.8 µM in assay [1]; 2.3 µM in assay [2]; 8.78 µM in assay [3]; 5.63 µM in assay [4]; 5.31 µM in assay [5]; 17.4 µM in assay [6]. Besides, the TGI in assay [7] was over 22.7 µM; in [8], 7.63 µM; in [9] it was over 24.9 µM; in [10], 0.431 µM.

As to `Cc1cc(I)cc(CNCCCN2CCSCC2)c1O`, the GI50 in assay [1] is 13.7 µM; in [2], 16.5 µM; in assay [3], 17.7 µM; in assay [4] it was 12.4 µM; in assay [5], 13 µM; in [6], 24.5 µM. The GI50 in assay [7] was 20.3 µM; in assay [8] it was 20.3 µM; in assay [9], 8.4 µM; in assay [10], 10.4 µM. The TGI was 28.8 µM in [1]; 30.3 µM in assay [2]; 35.9 µM in [3]; 30.8 µM in [4]; 25.8 µM in [5]; 79.8 µM in assay [6]. Further, the TGI in assay [7] was found to be 46.7 µM; in assay [8], 42.7 µM; in assay [9] it was 26.1 µM; in [10], 28.5 µM.

For `O=NN(Cc1ccc(Cl)cc1)C(C(=O)O)c1ccccc1` (stereo not given), the TGI in assay [1], in assay [2], in assay [3], in [4], in [5] and in [6] was over 100 µM throughout. Also, the TGI in assay [7], in assay [8], in [9] and in [10] was over 100 µM each time.

Consider `COc1ccc(C2=NN(C(=O)c3cc(OC)c(OC)c(OC)c3)C(c3ccc(C#N)cc3)C2)cc1OC` (stereo not given), for which the GI50 in assay [1] is 0.586 µM; in [2], 1.26 µM; in assay [3], 1.48 µM; in assay [4] it was 3.54 µM; in [5], 2.14 µM; in assay [6] it was 2.84 µM. The GI50 was 3.41 µM in assay [7], 2.98 µM in assay [8], 0.889 µM in assay [9] and 1.13 µM in assay [10]. In addition, the TGI in assay [1] was 19.9 µM; in assay [2], over 100 µM; in [3] it was over 64.8 µM; in assay [4], over 100 µM; in assay [5], over 48.8 µM; in assay [6], over 55.3 µM. Besides, the TGI in assay [7] was over 65.1 µM; in assay [8], over 39 µM; in assay [9], over 100 µM; in assay [10], over 100 µM.

As to `O=C(O)CCCCC(CCSCc1ccccc1)SCc1ccccc1` (stereo not given), the GI50 in assay [1] was over 100 µM; in [2] it was over 70 µM; in assay [3] it was 33.1 µM; in [4], 30.6 µM; in assay [5], 64.2 µM; in assay [6] it was over 71 µM. Moreover, the GI50 is 70.2 µM in [7], over 71.2 µM in assay [8], 44.5 µM in assay [9] and 36.1 µM in assay [10]. In addition, the TGI was over 100 µM in assay [1]; over 100 µM in [2]; over 100 µM in assay [3]; 96.7 µM in assay [4]; over 100 µM in [5]; over 100 µM in assay [6]. Besides, the TGI in [7], in assay [8], in assay [9] and in assay [10] was over 100 µM in each case.

For `CC1CCC2(C(=O)O)CCC3(C)C(=CCC4C5(C)CC(O)C(O)C(C)(CO)C5C(O)CC43C)C2C1C` (stereo not given), the TGI in [1] is 79.7 µM; in [2] it was over 100 µM; in assay [3] it was over 100 µM; in assay [4], 80.4 µM; in [5], 20 µM; in assay [6], over 100 µM. For the same compound, the TGI in [7] is over 100 µM; in [8], over 100 µM; in assay [9], over 100 µM; in assay [10], over 63.1 µM.

As for `CC1=C(C(=O)Nc2ccc3[nH]ncc3c2)C(c2ccc3ccccc3c2)CC(=O)N1` (stereo not given), the GI50 in assay [1] was 1.54 µM; in assay [2], 9.97 µM; in assay [3], over 25 µM; in assay [4] it was over 25 µM; in [5], 15.1 µM; in [6] it was 1.04 µM. Besides, the GI50 in assay [7] is 13.4 µM; in [8] it was over 25 µM; in assay [9], over 25 µM; in [10], over 25 µM. For the same compound, the TGI in assay [1] was over 20.1 µM; in [2], over 25 µM; in [3] it was over 25 µM; in assay [4] it was over 25 µM; in assay [5] it was over 25 µM; in assay [6], over 18.2 µM. Further, the TGI in [7], in assay [8], in [9] and in assay [10] was over 25 µM in each case.

Regarding `O=C1c2c(c3c4ccccc4n(CCCCCCBr)c3c3[nH]c4ccccc4c23)C(=O)N1O`, the GI50 in assay [1] is 3.14 µM; in [2], 3.56 µM; in [3] it was 2.64 µM; in assay [4], 1.92 µM; in [5], 2.09 µM; in assay [6], 3.7 µM. For the same compound, the GI50 was 3.45 µM in [7], 4.01 µM in assay [8], 2.8 µM in [9] and 1.23 µM in [10]. In addition, the TGI in assay [1] was 16.5 µM; in assay [2], 14.3 µM; in [3], 11.2 µM; in assay [4] it was 5.57 µM; in assay [5], 5.81 µM; in assay [6], 16.4 µM. In addition, the TGI in assay [7] came out at 23.4 µM; in assay [8], 15.2 µM; in assay [9], 10.2 µM; in [10], 4.71 µM.

For `COc1cnc2cc(C(=O)O)c3c([N+](=O)[O-])cccc3c2c1`, the TGI in assay [1], in [2], in assay [3], in assay [4], in assay [5] and in assay [6] was over 100 µM throughout. Also, the TGI in [7], in [8], in assay [9] and in assay [10] was over 100 µM each time.
